Measured values: patent US8182793B2, “Sunless tanning products and processes” (Concept Laboratories, priority 2004, dated 2012)
Read-outs that look alike come from different tables or passages of the source.

How the values were obtained:
[1] = test system: skin; test: Tanning response on forearm skin, visual assessment of color development on a 1-6 point scale; format: in vivo, human
Procedure: Simple aqueous formulations of dihydroxyacetone and sodium lactate were first evaluated for tanning response on skin. The formulations evaluated and the tanning responses obtained are shown in Tables 3 (formulations) and Table 4 (tanning response of Table 3 formulas).
(§1) An equal amount of each formula (approximately 150 mg.) from Table 3 was applied to 2″×2″ adjacent sections of forearm, allowed to dry and covered with clothing for the duration of the testing. The application areas were visibly the same color prior to treatment with the solutions and this was confirmed via calorimeter readings. Visual assessment of color development was made 24 hours post application using a 1-6 point scale with 1 signifying no color development versus non-treated skin, 3 signifying moderate color development and 6 signifying intensely dark color development. A commercial sunless tanning solution containing 10% DHA was used as a positive control.
as §1, with “As before, an equal” for “An equal”, “Table 5” for “Table 3”, “via colorimeter” for “via calorimeter”, “24 hours and at 48” for “24”, “development.” for “development. A commercial sunless tanning solution containing 10% DHA was used as a positive control.”
A control formula containing 10% DHA, 5% butylene glycol and 5% methylsulfonylmethane was used as a positive control. Past studies as outlined in applicants' co-pending application Ser. No. 10/382,868 titled SUNLESS TANNING PRODUCTS AND PROCESSES, filed on Mar.

[2] = moisture loss figure, Purac citation (Osipow); cited from earlier work
[3] = Water activity (aw) measured with Aqualab 3TE instrument; format: physicochemical; details: for Reduction of water activity compared with other screened materials (in words): additive screening, aqueous solutions
Excerpt: There is no device that can be put into a product to directly measure the water activity. However, the water activity of a product can be determined, indirectly, from the relative humidity of the air surrounding the sample when the air and the sample are at equilibrium. Therefore, the sample must be in an enclosed space where this equilibrium can take place. Once this occurs, the water activity of the sample and the relative humidity of the air are equal. The measurement taken at equilibrium is called an equilibrium relative humidity or ERH.
In practice, water activity can be determined by use of the Aqualab© (Decagon, Inc., Pullman, Wash.) or HygroLab© (Rotronic, Inc., Huntington, N.Y.). For all of the experimental water activity data recorded and detailed in this application, an Aqualab 3T-E instrument with an accuracy of +/−0.003 units and with automatic temperature equilibration (23.7+/−0.2° C.) capability was utilized.
In the AquaLab instrument, a sample is equilibrated within the headspace of a sealed chamber containing a mirror, an optical sensor, an internal fan, and an infrared temperature sensor. At equilibrium, the relative humidity of the air in the chamber is the same as the water activity of the sample. A thermoelectric (Peltier) cooler precisely controls the mirror temperature. An optical reflectance sensor detects the exact point at which condensation first appears. A beam of infrared light is directed onto the mirror and reflected back to a photodetector which detects the change in reflectance when condensation occurs on the mirror. A thermocouple attached to the mirror accurately measures the dew-point temperature. The internal fan is for air circulation, which reduces vapor equilibrium time and controls the boundary layer conductance of the mirror surface. Additionally, a thermopile sensor (infrared thermometer) measures the sample surface temperature. Both the dew point and sample temperatures are then used to determine the water activity. During a water activity measurement, the AquaLab repeatedly determines the dew-point temperature until vapor equilibrium is reached. Since the measurement is based on temperature determination, calibration is not necessary, but measuring a standard salt solution checks proper functioning of the instrument. If there is a problem, the mirror is easily accessible and can be cleaned in a few minutes.
Sunless tanning formulations typically contain 3-10% by weight of DHA as the primary tanning agent dissolved in water. DHA is a water soluble sugar, and, as with other sugars or solutes will decrease the water activity as compared to pure water (aw=1.00). Solutes dilute the water, increasing its entropy and therefore lowering its energy state. These two effects combine to lower the total free energy of the water.
An arbitrary upper limit of 0.900 for aqueous solutions of additives was set for the screening studies. In other words, any cosmetic or pharmaceutical additive investigated must lower the aw of water from 1.000 to 0.900 or below when tested at a concentration that was judged to be the upper practical limit for inclusion based on safety and general cosmetic acceptability.

[4] = test system: skin; details: earlier studies of the applicant in prior filings Ser. No. 10/382,868 & 10/694,972; cited from earlier work
[5] = test system: stratum corneum; test: In vivo water binding capacity, Nova Dermal Phase Meter (conductance); details: added to aqueous solutions of DHA
Procedure: In addition to the water activity screening and the tanning experiments conducted with simple aqueous solutions of DHA, sodium lactate, and glycols, objective instrumental testing for in vivo water binding capacity of these DHA-sodium lactate-glycol solutions was conducted.
The Nova Meter measures water content of the top layers of the skin indirectly via conductance measurements.

SMILES: CC(O)C(=O)O (stereo not drawn) [lactic acid]
- Effect on the tanning response of DHA ([1]; added to 5% DHA solutions): enhancement of the tanning response was recorded
- Water-holding capacity [2]: equal water-holding capacity

SMILES: OCC(O)CO [glycerol, reference compound]
- Lowering of water activity compared with other glycols (in words) ([3]; 10% in 10% DHA solution, Table 1): lower the water activity to a greater extent than the other glycols evaluated
- Effect on the tanning response of DHA [4]: somewhat of an inhibitory effect on the tanning response of DHA
- Water-holding capacity [2]: equal water-holding capacity

SMILES: CC(O)C(=O)[O-].[Na+] (stereo not drawn) [Sodium Lactate, sodium lactate]
- Water Activity (aw) ([3]; Sodium Lactate 6.0 % w/w): 0.991
- Water Activity (aw) ([3]; Sodium Lactate 12.0 % w/w): 0.944
- Water Activity (aw) ([3]; Sodium Lactate 18.0 % w/w): 0.913
- Water Activity (aw) ([3]; Sodium Lactate 24.0 % w/w): 0.880
- Water Activity (aw) ([3]; Sodium Lactate 30.0 % w/w): 0.840
- Reduction of water activity compared with other screened materials (in words) [3]: capable of reducing the water activity to a greater extent than any other material screened
- Water activity (Aw) ([3]; aqueous solutions at concentrations of 25% w/w or less): below 0.900
- Concentration meeting the screening criterion of reduction of aw to 0.900 or less ([3]; read from Table 2): 18-24%
- Effect on the tanning response of DHA ([1]; added to 5% DHA solutions): enhancement of the tanning response was recorded
- Effect on the tanning response of DHA ([1]; use concentrations of 0.5-5.0%): Enhance the tanning response of DHA
- Water holding capacity of the stratum corneum (moisturizing effect) [5]: improve the water holding capacity of the stratum corneum
- Water-holding capacity [2]: double the capacity of glycerin

SMILES: O=C1CCC(C(=O)[O-])N1.[Na+] (stereo not drawn) [Sodium PCA, sodium pyrrolidone carboxylic acid]
- Reduction of water activity compared with other screened materials (in words) [3]: capable of reducing the water activity to a greater extent than any other material screened
